According to ChEMBL document CHEMBL5046276 (J Med Chem, 2022):

System: Plasmodium falciparum
Test: Antimalarial activity against late stage (IV) Plasmodium falciparum NF54 gametocytes transfected with p230p-Luc assessed as reduction in gametocyte viability incubated for 48 hrs by luciferase reporter gene based bioluminescence assay
Assay type: functional, organism-based
Conditions: NF54, 48 h

Cl.Cn1cc(CN2CC3(CCN(c4ncc(C(=O)NO)cn4)C3)C2)c2ccc(C#N)cc21
IC50: 0.0124 µM
